Test results from patent US8791145B2, “Agricultural formulations with acyl morpholines and polar aprotic co-solvents” (Akzo Nobel Chemicals International B.V., priority 2010, dated 2014).

Tests used:
[1] = Literature value from Adjuvant Newsletter; cited from earlier work
[2] = Dilution of Imidacloprid formulation in water, ocular inspection; format: physicochemical; parameters: key: +: easily dissolved; −: permanent crystals; NS: Non soluble; conditions: 200 g/l diluted to 0.4 g/l
Source text: Formulations containing 200 g/l of Imidacloprid was formulated together with 40 g/l of an alcohol ethoxylate (2-propylheptanol ethoxylated with 8 moles of EO per mole of alcohol) and diluted to a final volume of one liter with each one of the solvents N-formyl morpholine, N-acetyl morpholine and N-propionyl morpholine along with a co-solvent. The co-solvents used were dimethylsulfoxide (DMSO), propylene carbonate (PC), dimethylformamide (DMF) and ethyl lactate (EL). Ethyl lactate is a protic solvent and is included in the experiment for comparison. The amount of each co-solvent, in % by weight of the total weight of morpholine and co-solvent, is seen in table 2. The solutions was diluted in water to an end concentration of imidacloprid of 0.4 g/l and the dilution was judged by ocular inspection with the naked eye, and in the table below, the following is used: • +: easily dissolved, • −: permanent crystals. • NS: Non soluble

[3] = Solubility in acyl morpholines; format: physicochemical; conditions: 23° C.
Description: Various agriculturally active ingredients were dissolved in N-formyl morpholine, N-acetyl morpholine and N-propionyl morpholine in order to evaluate the solubility of the active ingredients in the solvents. This was done by adding the active ingredient to a beaker and thereafter adding the solvent until a clear solution was obtained. The solutions were continually stirred at a temperature of 23° C. during the experiments. When everything had been dissolved, the beakers were left without stirring for 24 h to see if the solution was stable (i.e. no crystallization).

O=[N+]([O-])NC1=NCCN1Cc1ccc(Cl)nc1 [Imidacloprid]
Dissolution of active ingredient into Lactic acid dimethyl amide [1]: 14 grams of active ingredient in 100 g solvent
Crystallization upon dilution in water ([2]; NAM, 0% DMF): −
Crystallization upon dilution in water ([2]; NAM, 0% DMSO): −
Crystallization upon dilution in water ([2]; NAM, 0% EL): −
Crystallization upon dilution in water ([2]; NAM, 0% PC): −
Crystallization upon dilution in water ([2]; NAM, 5% DMF): −
Crystallization upon dilution in water ([2]; NAM, 5% DMSO): −
Crystallization upon dilution in water ([2]; NAM, 5% EL): −
Crystallization upon dilution in water ([2]; NAM, 5% PC): −
Crystallization upon dilution in water ([2]; NAM, 10% DMF): −
Crystallization upon dilution in water ([2]; NAM, 10% DMSO): −
Crystallization upon dilution in water ([2]; NAM, 10% EL): NS
Crystallization upon dilution in water ([2]; NAM, 10% PC): −
Crystallization upon dilution in water ([2]; NAM, 15% DMF): −
Crystallization upon dilution in water ([2]; NAM, 15% DMSO): +
Crystallization upon dilution in water ([2]; NAM, 15% EL): NS
Crystallization upon dilution in water ([2]; NAM, 15% PC): −
Crystallization upon dilution in water ([2]; NAM, 20% DMF): +
Crystallization upon dilution in water ([2]; NAM, 20% DMSO): +
Crystallization upon dilution in water ([2]; NAM, 20% EL): NS
Crystallization upon dilution in water ([2]; NAM, 20% PC): NS
Crystallization upon dilution in water ([2]; NAM, 25% DMF): +
Crystallization upon dilution in water ([2]; NAM, 25% DMSO): +
Crystallization upon dilution in water ([2]; NAM, 25% EL): NS
Crystallization upon dilution in water ([2]; NAM, 25% PC): NS
Crystallization upon dilution in water ([2]; NAM, 30% DMF): +
Crystallization upon dilution in water ([2]; NAM, 30% DMSO): +
Crystallization upon dilution in water ([2]; NAM, 30% EL): NS
Crystallization upon dilution in water ([2]; NAM, 30% PC): NS
Crystallization upon dilution in water ([2]; NAM, 50% DMF): +
Crystallization upon dilution in water ([2]; NAM, 50% DMSO): +
Crystallization upon dilution in water ([2]; NAM, 50% EL): NS
Crystallization upon dilution in water ([2]; NAM, 50% PC): NS
Crystallization upon dilution in water ([2]; NAM, 95% DMF): +
Crystallization upon dilution in water ([2]; NAM, 95% DMSO): +
Crystallization upon dilution in water ([2]; NAM, 95% EL): NS
Crystallization upon dilution in water ([2]; NAM, 95% PC): NS
Crystallization upon dilution in water ([2]; NFM, 0% DMF): −
Crystallization upon dilution in water ([2]; NFM, 0% DMSO): −
Crystallization upon dilution in water ([2]; NFM, 0% EL): −
Crystallization upon dilution in water ([2]; NFM, 0% PC): −
Crystallization upon dilution in water ([2]; NFM, 5% DMF): −
Crystallization upon dilution in water ([2]; NFM, 5% DMSO): −
Crystallization upon dilution in water ([2]; NFM, 5% EL): −
Crystallization upon dilution in water ([2]; NFM, 5% PC): −
Crystallization upon dilution in water ([2]; NFM, 10% DMF): −
Crystallization upon dilution in water ([2]; NFM, 10% DMSO): +
Crystallization upon dilution in water ([2]; NFM, 10% EL): NS
Crystallization upon dilution in water ([2]; NFM, 10% PC): −
Crystallization upon dilution in water ([2]; NFM, 15% DMF): +
Crystallization upon dilution in water ([2]; NFM, 15% DMSO): +
Crystallization upon dilution in water ([2]; NFM, 15% EL): NS
Crystallization upon dilution in water ([2]; NFM, 15% PC): +
Crystallization upon dilution in water ([2]; NFM, 20% DMF): +
Crystallization upon dilution in water ([2]; NFM, 20% DMSO): +
Crystallization upon dilution in water ([2]; NFM, 20% EL): NS
Crystallization upon dilution in water ([2]; NFM, 20% PC): +
Crystallization upon dilution in water ([2]; NFM, 25% DMF): +
Crystallization upon dilution in water ([2]; NFM, 25% DMSO): +
Crystallization upon dilution in water ([2]; NFM, 25% EL): NS
Crystallization upon dilution in water ([2]; NFM, 25% PC): +
Crystallization upon dilution in water ([2]; NFM, 30% DMF): +
Crystallization upon dilution in water ([2]; NFM, 30% DMSO): +
Crystallization upon dilution in water ([2]; NFM, 30% EL): NS
Crystallization upon dilution in water ([2]; NFM, 30% PC): NS
Crystallization upon dilution in water ([2]; NFM, 50% DMF): +
Crystallization upon dilution in water ([2]; NFM, 50% DMSO): +
Crystallization upon dilution in water ([2]; NFM, 50% EL): NS
Crystallization upon dilution in water ([2]; NFM, 50% PC): NS
Crystallization upon dilution in water ([2]; NFM, 95% DMF): +
Crystallization upon dilution in water ([2]; NFM, 95% DMSO): +
Crystallization upon dilution in water ([2]; NFM, 95% EL): NS
Crystallization upon dilution in water ([2]; NFM, 95% PC): NS
Crystallization upon dilution in water ([2]; NPM, 0% DMF): −
Crystallization upon dilution in water ([2]; NPM, 0% DMSO): −
Crystallization upon dilution in water ([2]; NPM, 0% PC): −
Crystallization upon dilution in water ([2]; NPM, 5% DMF): NS
Crystallization upon dilution in water ([2]; NPM, 5% DMSO): NS
Crystallization upon dilution in water ([2]; NPM, 5% PC): NS
Crystallization upon dilution in water ([2]; NPM, 10% DMF): NS
Crystallization upon dilution in water ([2]; NPM, 10% DMSO): NS
Crystallization upon dilution in water ([2]; NPM, 10% PC): NS
Crystallization upon dilution in water ([2]; NPM, 15% DMF): NS
Crystallization upon dilution in water ([2]; NPM, 15% DMSO): NS
Crystallization upon dilution in water ([2]; NPM, 15% PC): NS
Crystallization upon dilution in water ([2]; NPM, 20% DMF): NS
Crystallization upon dilution in water ([2]; NPM, 20% DMSO): NS
Crystallization upon dilution in water ([2]; NPM, 20% PC): NS
Crystallization upon dilution in water ([2]; NPM, 25% DMF): NS
Crystallization upon dilution in water ([2]; NPM, 25% DMSO): −
Crystallization upon dilution in water ([2]; NPM, 25% PC): NS
Crystallization upon dilution in water ([2]; NPM, 30% DMF): −
Crystallization upon dilution in water ([2]; NPM, 30% DMSO): −
Crystallization upon dilution in water ([2]; NPM, 30% PC): NS
Crystallization upon dilution in water ([2]; NPM, 50% DMF): +
Crystallization upon dilution in water ([2]; NPM, 50% DMSO): +
Crystallization upon dilution in water ([2]; NPM, 50% PC): NS
Crystallization upon dilution in water ([2]; NPM, 95% DMF): +
Crystallization upon dilution in water ([2]; NPM, 95% DMSO): +
Crystallization upon dilution in water ([2]; NPM, 95% EL): NS
Crystallization upon dilution in water ([2]; NPM, 95% PC): NS
Dissolution of active ingredient into N-acetyl morpholine (NAM) ([3]; NAM): 26 grams of active ingredient in 100 g solvent
Dissolution of active ingredient into N-formyl morpholine (NFM) ([3]; NFM): 30 grams of active ingredient in 100 g solvent
Dissolution of active ingredient into N-propionyl morpholine (NPM) ([3]; NPM): 19 grams of active ingredient in 100 g solvent
